These results are taken from PMC10235848, “Novel N′-substituted benzylidene benzohydrazides linked to 1,2,3-triazoles: potent α-glucosidase inhibitors” (Scientific Reports, 2023).

For data set [1], the target named is T1, α-glucosidase (Saccharomyces cerevisiae, UniProt P53341). Particulars: cited from earlier work.
Data set [2] has as its target T1, α-glucosidase. The data set can be described thus: Fluorescence quenching spectroscopy. It is filed as binding. Set-up: ΔS: unit not given here. Particulars: for Kq quenching rate constant / n binding sites: 25 °C; for ΔS: standard thermodynamic values from KA. As for the experimental part:
Fluorescence spectrometry was used for studying the interactions between selected α-glucosidase inhibitors (7a, 7d, and 7h) and the enzyme at 25 °C and pH 6.8 to determine the binding constants, number of binding sites, and thermodynamic parameters of the corresponding interactions. Herein, the maximum fluorescence intensity of α-glucosidase was obtained at 340 nm, which can be attributed to tryptophan, tyrosine, and phenylalanine residues that can act as intrinsic fluorescence probes with excitation at 280 nm.
The fluorescence measurements were performed on a Synergy HTX multi-mode reader (Biotek Instruments, Winooski, VT, USA) equipped with a quartz cuvette of 10 mm. The excitation wavelength was 280 nm and the emission spectra were measured in the range from 300 to 440 nm with 10 accumulations for each collection point. The emission spectrum was corrected for the background fluorescence from the buffer solution and for the inner filter effect promoted by the inhibitors. The protein-inhibitors interaction measurements were performed by collecting the fluorescence.
The fluorescence quenching of the protein (P) by a drug or inhibitor (D) was analyzed by Stern−Volmer equation (Eq. 1), where F0 and F are the fluorescence intensity in the absence and presence of a quencher (inhibitor), respectively. [D] is the concentration of inhibitor, Kq is the quenching rate constant, τ0 is the average life-time of the molecule without the quencher (10^−8 s), and KSV is the Stern−Volmer dynamic quenching constant.1 F0/F=1+Kqτ0D=1+KSVD
The reaction of the protein (P) and a drug molecule or inhibitor (D) was considered as Eq. 2, where P is the protein, D is the drug molecule, and DnP is the new complex molecule with the binding constant of KA.2 P+D→DnP
As the number of the binding site of protein and drug is respectively n and 1, the equivalent concentration of the complex DnP is n[DnP]; the equivalent concentration of the protein is n[P] and the equivalent concentration of the drug is [D]. In this respect, the KA value is calculated based on the Eq. (3).3 KA=nDnP/DnP
If the total concentration of protein is [Pt] and the total concentration of the drug is [Dt]: [Pt] = [Pf] + [DnP] and [Df] = [Dt] − n[DnP].
If protein (P) is the only fluorescence in the reaction system, thus:4 F0/F=Pt/Pf where F and F0 are the fluorescence intensity of protein in the presence and absence of drug D, respectively. Therefore, the relationship between the fluorescence intensity and the drug total concentration can be deduced from Eq. (5).5 F0/F=KADtF0/F0-F-nKAPt
Keeping the total concentration of protein at a definite value and varying the total concentration of the drug leads to obtaining the plot of F0/F as a function of [Dt] F0/(F0 − F) following with the calculation of KA.
The standard thermodynamic values were calculated according to Eqs. (6), (7), where ΔH, ΔG, and ΔS are enthalpy, free energy, and entropy changes, respectively. In the case of small changes in temperature, the enthalpy change can be considered as a constant and ΔH is calculated from Eq. (6) following with the calculation of ΔG and ΔS from Eq. (7).6 lnKA2/KA1=1/T1-1/T2ΔH/R 7 ΔG=-RTlnKA=ΔH-TΔS

The target of data set [3] is T1, α-glucosidase. The data set can be described thus: Fluorescence quenching spectroscopy. It is filed as binding. To be noted: 35 °C.
The next data set has as its system HEK293 cell line. Particulars: no reference given; cited from earlier work.

T1 sequence (P53341 whole entry): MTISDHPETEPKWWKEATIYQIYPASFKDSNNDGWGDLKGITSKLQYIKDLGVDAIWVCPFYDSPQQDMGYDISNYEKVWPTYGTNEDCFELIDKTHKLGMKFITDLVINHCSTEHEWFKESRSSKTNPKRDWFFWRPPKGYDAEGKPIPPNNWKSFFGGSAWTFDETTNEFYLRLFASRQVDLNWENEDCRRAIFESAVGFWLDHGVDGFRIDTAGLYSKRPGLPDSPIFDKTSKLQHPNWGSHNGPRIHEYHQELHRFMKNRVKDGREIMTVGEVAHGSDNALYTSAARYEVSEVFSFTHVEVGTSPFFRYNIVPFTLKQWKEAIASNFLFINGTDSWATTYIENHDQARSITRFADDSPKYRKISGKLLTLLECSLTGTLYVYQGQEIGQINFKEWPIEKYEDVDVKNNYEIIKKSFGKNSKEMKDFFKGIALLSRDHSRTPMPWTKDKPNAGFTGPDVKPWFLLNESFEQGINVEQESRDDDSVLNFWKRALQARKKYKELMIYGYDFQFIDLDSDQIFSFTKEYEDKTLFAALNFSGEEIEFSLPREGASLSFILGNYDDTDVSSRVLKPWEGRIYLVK

The term IC50 denotes the point on the concentration scale where inhibition reaches its midpoint. In the case of `O=c1oc2ccccc2c(O)c1C(c1ccc(OCc2cn(Cc3ccccc3Cl)nn2)cc1)c1c(O)c2ccccc2oc1=O` [A], on α-glucosidase [1], the concentration for half-maximal inhibition (IC50) is 13 ± 1.5 µM and the mode of inhibition result is given as “competitive”. Regarding `O=C1Nc2ccccc2/C1=N/N=C/c1ccc(OCc2cn(Cc3ccccc3F)nn2)cc1` [C], at α-glucosidase [1], the IC50 is 16.43 ± 0.01 µM and the mode of inhibition result is on record as “competitively”. Turning to `O=C(NN=Cc1ccccc1)c1ccc(OCc2cn(Cc3ccccc3)nn2)cc1` [Compound 7a, 4-((1-Benzyl-1H-1,2,3-triazol-4-yl)methoxy)-N′-benzylidenebenzohydrazide], on α-glucosidase [2], the “Kq quenching rate constant” value was found to be 1.5e+15 M⁻¹ s⁻¹, the n binding sites came out at 0.8 and the ΔS stood at 48.37. Also, the “Kq quenching rate constant” value at α-glucosidase [3] stood at 9e+15 M⁻¹ s⁻¹. One may read the melting point as the temperature of the solid-liquid transition. With `O=C(NN=Cc1ccccc1)c1ccc(OCc2cn(Cc3ccc(F)cc3)nn2)cc1` [Compound 7b, N′-Benzylidene-4-((1-(4-fluorobenzyl)-1H-1,2,3-triazol-4-yl)methoxy)benzohydrazide], the melting point lay within 160 to 163 °C. As for `O=C(NN=Cc1ccccc1)c1ccc(OCc2cn(Cc3ccccc3Cl)nn2)cc1` [Compound 7c, N′-Benzylidene-4-((1-(2-chlorobenzyl)-1H-1,2,3-triazol-4-yl)methoxy)benzohydrazide], the melting point fell in the range of 203 to 207 °C. In turn, `Cc1ccc(Cn2cc(COc3ccc(C(=O)NN=Cc4ccccc4)cc3)nn2)cc1` [Compound 7d, N′-Benzylidene-4-((1-(4-methylbenzyl)-1H-1,2,3-triazol-4-yl)methoxy)benzohydrazide] gave a melting point of 154 to 156 °C. Also, on α-glucosidase [2], the “Kq quenching rate constant” value was 4.2e+15 M⁻¹ s⁻¹, the n binding sites turned out to be 0.1 and the ΔS turned out to be 146.0. In addition, the “Kq quenching rate constant” value on α-glucosidase [3] was 1e+15 M⁻¹ s⁻¹. `O=C(NN=Cc1ccc([N+](=O)[O-])cc1)c1ccc(OCc2cn(Cc3ccccc3)nn2)cc1` [Compound 7e, 4-((1-Benzyl-1H-1,2,3-triazol-4-yl)methoxy)-N′-(4-nitrobenzylidene)benzohydrazide]: the melting point lay in the range of 193 to 196 °C. Consider `O=C(NN=Cc1ccc([N+](=O)[O-])cc1)c1ccc(OCc2cn(Cc3ccc(F)cc3)nn2)cc1` [Compound 7f, 4-((1-(4-Fluorobenzyl)-1H-1,2,3-triazol-4-yl)methoxy)-N′-(4-nitrobenzylidene)benzohydrazide], for which the melting point lay within 202 to 205 °C. On the same count and under the same terms, for `O=C(NN=Cc1ccc([N+](=O)[O-])cc1)c1ccc(OCc2cn(Cc3ccccc3Cl)nn2)cc1` [Compound 7g, 4-((1-(2-Chlorobenzyl)-1H-1,2,3-triazol-4-yl)methoxy)-N′-(4-nitrobenzylidene)benzohydrazide] the value was 204 to 206 °C. In turn, `Cc1ccc(Cn2cc(COc3ccc(C(=O)NN=Cc4ccc([N+](=O)[O-])cc4)cc3)nn2)cc1` [Compound 7h, 4-((1-(4-Methylbenzyl)-1H-1,2,3-triazol-4-yl)methoxy)-N′-(4-nitrobenzylidene)benzohydrazide] came in with a melting point of 247 to 250 °C. Besides, on α-glucosidase [2], the “Kq quenching rate constant” value turned out to be 1e+15 M⁻¹ s⁻¹, the n binding sites is recorded as 0.06 and the ΔS was 71.1. Moreover, the “Kq quenching rate constant” value on α-glucosidase [3] is 6.8e+15 M⁻¹ s⁻¹.

Take `O=C(NN=Cc1ccc(Cl)cc1)c1ccc(OCc2cn(Cc3ccccc3)nn2)cc1` [Compound 7i, 4-((1-Benzyl-1H-1,2,3-triazol-4-yl)methoxy)-N′-(4-chlorobenzylidene)benzohydrazide]: the melting point is 211 to 214 °C. Consider `O=C(NN=Cc1ccc(Cl)cc1)c1ccc(OCc2cn(Cc3ccc(F)cc3)nn2)cc1` [Compound 7j, N′-(4-Chlorobenzylidene)-4-((1-(4-fluorobenzyl)-1H-1,2,3-triazol-4-yl)methoxy)benzohydrazide], for which the melting point was 236 to 238 °C. Turning to `O=C(NN=Cc1ccc(Cl)cc1)c1ccc(OCc2cn(Cc3ccccc3Cl)nn2)cc1` [Compound 7k, 4-((1-(2-Chlorobenzyl)-1H-1,2,3-triazol-4-yl)methoxy)-N′-(4-chlorobenzylidene)benzohydrazide], the melting point was 246 to 248 °C.

Molecule `Cc1ccc(Cn2cc(COc3ccc(C(=O)NN=Cc4ccc(Cl)cc4)cc3)nn2)cc1` [Compound 7l, N′-(4-Chlorobenzylidene)-4-((1-(4-methylbenzyl)-1H-1,2,3-triazol-4-yl)methoxy)benzohydrazide] gave a melting point of 216 to 218 °C. Regarding `COc1ccc(C=NNC(=O)c2ccc(OCc3cn(Cc4ccccc4)nn3)cc2)cc1` [Compound 7m, 4-((1-Benzyl-1H-1,2,3-triazol-4-yl)methoxy)-N′-(4-methoxybenzylidene)benzohydrazide], the melting point lay in the range of 237 to 240 °C. Take `COc1ccc(C=NNC(=O)c2ccc(OCc3cn(Cc4ccccc4Cl)nn3)cc2)cc1` [Compound 7o, 4-((1-(2-Chlorobenzyl)-1H-1,2,3-triazol-4-yl)methoxy)-N′-(4-methoxybenzylidene)benzohydrazide]: the melting point lay in the range of 222 to 225 °C.

Regarding `COc1ccc(C=NNC(=O)c2ccc(OCc3cn(Cc4ccc(C)cc4)nn3)cc2)cc1` [Compound 7p, N′-(4-Methoxybenzylidene)-4-((1-(4-methylbenzyl)-1H-1,2,3-triazol-4-yl)methoxy)benzohydrazide], the melting point fell in the range of 224 to 228 °C. Turning to `CCc1ccc(NC(=O)Cn2cc(COc3ccc(-c4nc5ccccc5[nH]4)cc3)nn2)cc1` [Compound B], the IC50 on α-glucosidase [1] is 25.2 ± 0.9 µM. Regarding `COC(=O)c1c(C)cc(OC(=O)c2c(C)cc(O)c(/C=N/NC(=O)Cc3ccccc3)c2O)c(C)c1O` [E], the “toxicity on the HEK293 cell line” value in the data set on HEK293 cell line is recorded as “without toxicity”.
